{
  "source": "patent US20110117055A1",
  "about": "“Methods of Treating Hepatitis C Virus with Oxoacetamide Compounds” (priority 2009, published 2011)",
  "key": {"[1]": {"system": "HCV genotype 1b subgenomic replicon", "experiment": "HCV replicon assay (HCV1b replicon cells, NS5A ELISA)", "assay_type": "cell-based", "conditions": "3 days", "procedure": "Alternatively, Hut1b cells (Huh7 cells stably replicating HCV genotype 1b subgenomic replicon) were treated with serial dilutions of the test compound for 72 hours. Replication efficiency was monitored by ELISA assay using anti-HCV NS5A monoclonal antibody (Virogen).\nIncreasing amounts of compound were inoculated onto HCV1b replicon cells and incubated for 3 days. Following incubation, HCV replication was monitored with NS5A protein expression by ELISA."}, "[2]": {"system": "HCV2aCh (E2:G451R) mutant virus", "experiment": "E2:G451R mutant virus infectivity, luciferase assay", "assay_type": "cell-based, HCV genotype 2a", "conditions": "E2:G451R vs parental", "source_text": "Since SR-B1 is also known to be one of the essential cellular receptors required for HCV entry, we were interested to know if Compounds 1 and 5 inhibits HCV entry via SR-B1. HCV E2 protein interaction with SR-B1 is believed to occur via hypervariable region 1 located within the N-terminal region of the E2 glycoprotein. Zhong and colleagues reported that a glycine-to-arginine mutation at position 451 (G451R) in E2 promoted JFH-1 infectivity (J. Viol. 2006, 80:11082). […] We introduced the E2:G451R mutation into the backbone of HCV2aCh (FIG. 13a) to test whether this mutation may alter the inhibitory effect of Compounds 1 and 5 on HCV entry mediated by SR-B1."}, "Jc1-luc virus": {"system": "Jc1-luc virus", "experiment": "Luciferase compound activity assay, Jc1-luc virus in Huh7.5.1 cells", "assay_type": "cell-based, HCV genotype-2a", "conditions": "Jc1-luc; ± standard error of the mean", "procedure": "Cell culture. Human hepatoma Huh-7.5.1 cells or Huh7 cells were grown at 37° C. and 5% CO2 in Dulbecco's modification of Eagle's medium supplemented with 2 mM L-glutamine, 1 mM Sodium pyruvate, 1× Non-essential amino acids mix, 100 units/ml penicillin, 100 μg/ml streptomycin, and 10% fetal bovine serum.\nVirus plasmids. The chimeric full-length construct pFL-JC1, a GT2a/2a chimera consisting of structural genes from the J6CF isolate and non-structural genes from the JFH1 isolate, has been described previously. See Backes et al., J. Virol. 2010, 84:5775-89; Schaller et al., J. Virol., 2007, 81:4591-603; Koutsoudakis et al., J. Virol. 2006, 80:5308-20; Pietschmann et al., Proc. Natl. Acad. Sci., 2006, 103:7408-13. The firefly luciferase gene has been inserted to pFL-Jc1 to develop a plamid pFL-Jc1-luc for use as a reporter of viral replication. See Amako et al., J. Virol. 2009, 83:9237-46. Specifically, the pFL-JC1-luc construct can be utilized to develop an infectious HCV cell culture system to test novel HCV inhibitors, including entry inhibitors, in vitro using luciferase expression.\nPreparation of infectious HCV. Jc1-luc or HCV2a/2aChRluc RNA was in vitro transcribed using T7 RiboMAX™ Express Large Scale RNA Production System (Promega). After RNA clean up (Qiagen RNeasy Mini kit), transfection was performed as previously described.\n400 microliters of a Huh-7.5.1 or Huh7 cell suspension (10^7 cells/ml) was placed in a 0.4-cm cuvette with 10 μg of Jc1-luc or HCV2a/2aChRluc RNA and electroporated (Bio-Rad Gene Pulser System) using a single square wave at 260 V and 25 ms pulse length. The cells were plated in 15-cm tissue culture dishes (Corning) and supernatant was harvested and concentrated using a centrifugal filter (Amicon 100K, Millipore).\nLuciferase compound activity assay. Cell culture and luciferase compound assays were performed as previously described. See Wyles et al., J. Virol. 2007, 81:3005-8; Wyles et al., Antimicrob Agents Chemother. 2009, 53:2660-2; Grünberger et al., J. Infect. Dis. 2008, 197:42-5; Wyles et al., Antimicrob Agents Chemother, 2008, 52:1862-4. Briefly, Huh7.5.1 cells were seeded into 96-well plates at a density of 10,000 cells per well in 100 μl medium. After incubating overnight for attachment, Jc1-luc virus at an MOI 0.01 was added to wells with or without compounds at the specified concentrations. All conditions were run in triplicate. After 24 hours, medium was aspirated and replaced with 100 μl of complete medium containing an identical concentration of compound(s) followed by additional 48 hour incubation. The luciferase assay (Bright-Glo; Promega) was carried out according to the manufacturer's instructions. Luciferase activity was determined using a microplate luminometer (Veritas microplate luminometer; Turner Biosystems). […]"}},
  "data": [
    {"substance": "IFN-α", "values": [
      {"measurement": "effect on HCV replication (NS5A protein expression by ELISA)", "setting": "[1]", "result": "dose dependent inhibition"},
      {"measurement": "sensitivity of E2 mutant virus relative to parental virus, luciferase assay for viral infectivity", "setting": "[2]", "result": "very identical patterns"},
      {"measurement": "EC50", "setting": "Jc1-luc virus", "result": "3.01 ± 0.39", "unit": "IU/ml"},
      {"measurement": "CC50", "setting": "Huh7.5.1 cells", "result": ">100", "unit": "IU/ml"}
    ]}
  ]
}
